One block for each compound: values may come before it.
Test system: 435261-313-R-J1-PDC tumor spheroid viability
Experiment: Anticancer human tumor 435261-313-R-J1-PDC patient-derived colon adenocarcinoma cell line growth inhibition [PI3K]
Details: spheroids with HUVEC and MSC; for IC50: curve of first compound; for viability, T/C: stronger effect = lower value
In short: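 Stroma-containing spheroids: tumor line, pooled-donor HUVEC, hMSC. Treatments: targeted agents with PI3K inhibitors. Dosing: clinically relevant, half-log spacing, 10 microM ceiling without known Cmax. Read-out: cell viability.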

[1] = second compound 0.0316 µM, first compound 0.0316 µM
[2] = second compound 0.0316 µM, first compound 0.1 µM
[3] = second compound 0.0316 µM, first compound 0.316 µM
[4] = second compound 0.0316 µM, first compound 1 µM
[5] = second compound 0.0316 µM, first compound 3.16 µM
[6] = second compound 0.0316 µM, first compound 10 µM
[7] = second compound 0.1 µM, first compound 0.0316 µM
[8] = second compound 0.1 µM, first compound 0.1 µM
[9] = second compound 0.1 µM, first compound 0.316 µM
[10] = second compound 0.1 µM, first compound 1 µM
[11] = second compound 0.1 µM, first compound 3.16 µM
[12] = second compound 0.1 µM, first compound 10 µM
[13] = second compound 0.316 µM, first compound 0.0316 µM
[14] = second compound 0.316 µM, first compound 0.1 µM
[15] = second compound 0.316 µM, first compound 0.316 µM
[16] = second compound 0.316 µM, first compound 1 µM
[17] = second compound 0.316 µM, first compound 3.16 µM
[18] = second compound 0.316 µM, first compound 10 µM
[19] = second compound 1 µM, first compound 0.0316 µM
[20] = second compound 1 µM, first compound 0.1 µM
[21] = second compound 1 µM, first compound 0.316 µM
[22] = second compound 1 µM, first compound 1 µM
[23] = second compound 1 µM, first compound 3.16 µM
[24] = second compound 1 µM, first compound 10 µM
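Further: spheroids exposed to compounds for 7 days.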

IC50 (second compound 0.0316 µM): 2550 nM
IC50 (second compound 0.1 µM): 1920 nM
IC50 (second compound 0.316 µM): 1470 nM
IC50 (second compound 1 µM): 1550 nM
IC50 (second compound 3.16 µM): < 31.6 nM
IC50 (second compound 10 µM): < 31.6 nM
SMILES: CC1(C)CCC(Nc2ncc(C(F)(F)F)c(-c3c[nH]c4c(P(C)(C)=O)c(C#N)ccc34)n2)CN1 (centres undefined) + CC(Nc1ncnc2nc[nH]c12)c1cc2cccc(Cl)c2c(=O)n1-c1ccccc1
viability, T/C [1]: 61.1%
viability, T/C [2]: 52.4%
viability, T/C [3]: 61.4%
viability, T/C [4]: 61.4%
viability, T/C [5]: 48%
viability, T/C [6]: 1.46%
viability, T/C [7]: 70.5%
viability, T/C [8]: 60.4%
viability, T/C [9]: 53.4%
viability, T/C [10]: 60.6%
viability, T/C [11]: 44.4%
viability, T/C [12]: 2.25%
viability, T/C [13]: 56.9%
viability, T/C [14]: 57.8%
viability, T/C [15]: 58.2%
viability, T/C [16]: 50.9%
viability, T/C [17]: 43.5%
viability, T/C [18]: 0.98%
viability, T/C [19]: 50.5%
viability, T/C [20]: 52.1%
viability, T/C [21]: 57.2%
viability, T/C [22]: 57%
viability, T/C [23]: 44.3%
viability, T/C [24]: 1.03%
viability, T/C (second compound 3.16 µM, first compound 0.0316 µM): 37.3%
viability, T/C (second compound 3.16 µM, first compound 0.1 µM): 42.8%
viability, T/C (second compound 3.16 µM, first compound 0.316 µM): 44%
viability, T/C (second compound 3.16 µM, first compound 1 µM): 47.8%
viability, T/C (second compound 3.16 µM, first compound 3.16 µM): 36.9%
viability, T/C (second compound 3.16 µM, first compound 10 µM): 0.77%
viability, T/C (second compound 10 µM, first compound 0.0316 µM): 33.6%
viability, T/C (second compound 10 µM, first compound 0.1 µM): 27.4%
viability, T/C (second compound 10 µM, first compound 0.316 µM): 27.7%
viability, T/C (second compound 10 µM, first compound 1 µM): 31.1%
viability, T/C (second compound 10 µM, first compound 3.16 µM): 22.3%
viability, T/C (second compound 10 µM, first compound 10 µM): 1.14%

IC50 (second compound 0.00316 µM): 421 nM
IC50 (second compound 0.01 µM): 218 nM
IC50 (second compound 0.0316 µM): 105 nM
IC50 (second compound 0.1 µM): < 31.6 nM
IC50 (second compound 0.316 µM): < 31.6 nM
IC50 (second compound 1 µM): < 31.6 nM
SMILES: Cn1nccc1Nc1nccc(-c2ccn(C(CO)c3ccc(Cl)c(F)c3)c(=O)c2)n1 (centres undefined) + CC(Nc1ccc2c(c1)OCCn1cc(N3C(=O)OCC3C(F)F)nc1-2)C(N)=O
viability, T/C (second compound 0.00316 µM, first compound 0.0316 µM): 90.4%
viability, T/C (second compound 0.00316 µM, first compound 0.1 µM): 73.3%
viability, T/C (second compound 0.00316 µM, first compound 0.316 µM): 51.7%
viability, T/C (second compound 0.00316 µM, first compound 1 µM): 40.1%
viability, T/C (second compound 0.00316 µM, first compound 3.16 µM): 22.1%
viability, T/C (second compound 0.00316 µM, first compound 10 µM): 12.8%
viability, T/C (second compound 0.01 µM, first compound 0.0316 µM): 72.6%
viability, T/C (second compound 0.01 µM, first compound 0.1 µM): 71.7%
viability, T/C (second compound 0.01 µM, first compound 0.316 µM): 39.5%
viability, T/C (second compound 0.01 µM, first compound 1 µM): 25.6%
viability, T/C (second compound 0.01 µM, first compound 3.16 µM): 27%
viability, T/C (second compound 0.01 µM, first compound 10 µM): 11.7%
viability, T/C [1]: 68%
viability, T/C [2]: 52.1%
viability, T/C [3]: 28.7%
viability, T/C [4]: 18.9%
viability, T/C [5]: 14.9%
viability, T/C [6]: 8.18%
viability, T/C [7]: 38.6%
viability, T/C [8]: 23.1%
viability, T/C [9]: 16.9%
viability, T/C [10]: 11.8%
viability, T/C [11]: 10.1%
viability, T/C [12]: 5.9%
viability, T/C [13]: 19.6%
viability, T/C [14]: 16.3%
viability, T/C [15]: 9.92%
viability, T/C [16]: 8.05%
viability, T/C [17]: 5.78%
viability, T/C [18]: 3.34%
viability, T/C [19]: 16.8%
viability, T/C [20]: 12.2%
viability, T/C [21]: 6.71%
viability, T/C [22]: 6.3%
viability, T/C [23]: 4.27%
viability, T/C [24]: 0.75%

Source: PubChem BioAssay AID1963976 (Molecular Pharmacology Branch, DTP, NCI, 2024)
